Assay results from paper PMC11617484, “A Small Molecule Agonist of Krüppel-Like Factor 15 in Proteinuric Kidney Disease” (Journal of the American Society of Nephrology : JASN, 2024).

Target: T1, inhibitor of nuclear factor kappa-B kinase subunit beta (IKKβ) (Homo sapiens, UniProt O14920)
T1 construct: gene IKBKB
T1 sequence (O14920 1-756): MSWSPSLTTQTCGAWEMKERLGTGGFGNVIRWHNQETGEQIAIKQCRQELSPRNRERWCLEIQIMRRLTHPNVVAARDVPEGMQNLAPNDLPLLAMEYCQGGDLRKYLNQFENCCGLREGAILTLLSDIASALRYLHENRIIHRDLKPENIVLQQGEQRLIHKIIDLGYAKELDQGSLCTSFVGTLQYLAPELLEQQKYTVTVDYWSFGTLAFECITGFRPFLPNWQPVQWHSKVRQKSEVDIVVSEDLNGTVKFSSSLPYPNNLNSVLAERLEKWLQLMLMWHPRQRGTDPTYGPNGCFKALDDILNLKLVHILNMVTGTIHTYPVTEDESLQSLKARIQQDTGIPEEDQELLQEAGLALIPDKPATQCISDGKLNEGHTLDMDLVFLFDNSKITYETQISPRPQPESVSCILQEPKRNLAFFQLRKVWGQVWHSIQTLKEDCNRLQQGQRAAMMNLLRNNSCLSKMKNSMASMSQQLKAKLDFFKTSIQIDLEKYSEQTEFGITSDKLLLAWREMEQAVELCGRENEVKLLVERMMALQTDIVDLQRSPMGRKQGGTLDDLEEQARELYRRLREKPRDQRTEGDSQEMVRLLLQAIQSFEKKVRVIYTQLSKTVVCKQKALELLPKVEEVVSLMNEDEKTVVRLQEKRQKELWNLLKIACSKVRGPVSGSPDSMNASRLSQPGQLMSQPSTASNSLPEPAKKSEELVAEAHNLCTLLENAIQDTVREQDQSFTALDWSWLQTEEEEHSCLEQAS
Assay: IKKβ kinase activity assay (dose response, ATP dependence, M96V gatekeeper resistance); supported by cellular thermal shift assay in human podocytes
Type: biochemical

IC50: 163 nM
Compound: CSc1ccc(NC(=O)Nc2ccc(C)nc2)cc1 [BT503]
